This is an account of results in patent publication US10058550B2, “Methods of treating heart failure” (priority 2015, dated 2018).

Sequence of human APJ receptor (P35414 whole entry): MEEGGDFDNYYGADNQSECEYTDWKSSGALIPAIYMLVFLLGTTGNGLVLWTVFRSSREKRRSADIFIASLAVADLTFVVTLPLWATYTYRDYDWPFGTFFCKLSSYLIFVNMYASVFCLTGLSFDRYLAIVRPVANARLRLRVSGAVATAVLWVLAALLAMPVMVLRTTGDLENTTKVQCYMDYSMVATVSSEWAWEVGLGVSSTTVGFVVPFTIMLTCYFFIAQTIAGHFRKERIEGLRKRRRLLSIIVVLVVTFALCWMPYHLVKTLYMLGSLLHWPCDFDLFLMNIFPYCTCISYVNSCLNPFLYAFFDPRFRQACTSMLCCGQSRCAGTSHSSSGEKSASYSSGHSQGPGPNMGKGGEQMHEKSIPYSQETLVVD

For the assay, the target named is human APJ receptor (Homo sapiens (Human), UniProt P35414). The assay can be described thus: biochemical. The class given is biochemical. The note with it: read-out: Activity hAPJ SPA EC50 IP. The method in brief:
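Agonist-stimulated [35S]GTPγS (0.2 nM) binding was read by SPA after 90 min at room temperature. Buffer: 20 mM HEPES pH 7.5 with 5 mM MgCl2, 200 mM NaCl, 3 μM GDP, 0.1% BSA; membranes were from a stable human APJ CHO line. EC50 values are averages of independent runs, fitted by non-linear regression.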
In the case of `COc1cccc(OC)c1-n1c(NS(=O)(=O)[C@@H](C)[C@H](OC)c2ncc(C)cn2)nnc1-c1ccccn1` [Example 629.0, (1R,2S)-N-(4-(2,6-dimethoxyphenyl)-5-(2-pyridinyl)-4H-1,2,4-triazol-3-yl)-1-methoxy-1-(5-methyl-2-pyrimidinyl)-2-propanesulfonamide], the EC50 is 1.6 nM. Next, `COCCOc1cccc(-c2nnc(NS(=O)(=O)[C@@H](C)[C@H](C)c3ncc(F)cn3)n2-c2c(OC)cccc2OC)n1` [Example 638.0, (2S,3R)-N-(4-(2,6-dimethoxyphenyl)-5-(6-(2-methoxyethoxy)pyridin-2-yl)-4H-1,2,4-triazol-3-yl)-3-(5-fluoropyrimidin-2-yl)butane-2-sulfonamide]: 0.65 nM. The figure for `CNc1cccc(-c2nnc(NS(=O)(=O)[C@@H](C)[C@H](C)c3ncc(F)cn3)n2-c2c(OC)cccc2OC)n1` [Example 641.0, (2S,3R)-N-(4-(2,6-dimethoxyphenyl)-5-(6-(methylamino)pyridin-2-yl)-4H-1,2,4-triazol-3-yl)-3-(5-fluoropyrimidin-2-yl)butane-2-sulfonamide] is 0.14 nM; for `COc1cccc(OC(F)F)c1-n1c(NS(=O)(=O)[C@@H](C)[C@H](OC)c2ncc(C)cn2)nnc1-c1cccnc1` [Example 667.0, (1R,2S,P)-N-(4-(2-(difluoromethoxy)-6-methoxyphenyl)-5-(3-pyridinyl)-4H-1,2,4-triazol-3-yl)-1-methoxy-1-(5-methyl-2-pyrimidinyl)-2-propanesulfonamide and (1R,2S,M)-N-(4-(2-(difluoromethoxy)-6-methoxyphenyl)-5-(3-pyridinyl)-4H-1,2,4-triazol-3-yl)-1-methoxy-1-(5-methyl-2-pyrimidinyl)-2-propanesulfonamide] it is 2.6 nM; for `COc1cccc(OC(F)F)c1-n1c(NS(=O)(=O)[C@@H](C)[C@H](OC)c2ncc(C)cn2)nnc1-c1cncc(C)c1` [Example 668.0, (1R,2S,P)-N-(4-(2-(difluoromethoxy)-6-methoxyphenyl)-5-(5-methyl-pyridinyl)-4H-1,2,4-triazol-3-yl)-1-methoxy-1-(5-methyl-2-pyrimidinyl)-2-propanesulfonamide and (1R,2S,M)-N-(4-(2-(difluoromethoxy)-6-methoxyphenyl)-5-(5-methyl-3-pyridinyl)-4H-1,2,4-triazol-3-yl)-1-methoxy-1-(5-methyl-2-pyrimidinyl)-2-propanesulfonamide] it is 0.76 nM. The figure for `CO[C@H](c1ncc(C)cn1)[C@H](C)S(=O)(=O)Nc1nnc(-c2cccnc2)n1-c1c(OC(F)F)cccc1OC(F)F` [Example 669.0, (1R,2S)-N-(4-(2,6-bis(difluoromethoxy)phenyl)-5-(3-pyridinyl)-4H-1,2,4-triazol-3-yl)-1-methoxy-1-(5-methyl-2-pyrimidinyl)-2-propanesulfonamide] is 2.7 nM. Take `CO[C@H](c1ncc(C)cn1)[C@H](C)S(=O)(=O)Nc1nnc(-c2cncc(C)c2)n1-c1c(OC(F)F)cccc1OC(F)F` [Example 670.0, (1R,2S)-N-(4-(2,6-bis(difluoromethoxy)phenyl)-5-(5-methyl-3-pyridinyl)-4H-1,2,4-triazol-3-yl)-1-methoxy-1-(5-methyl-2-pyrimidinyl)-2-propanesulfonamide]: the EC50 is 0.55 nM. The figure for `CO[C@H](c1ncc(C)cn1)[C@H](C)S(=O)(=O)Nc1nnc(-c2cncc(C)c2)n1-c1c(Cl)cccc1Cl` [Example 675.0, (1R,2S)-N-(4-(2,6-dichlorophenyl)-5-(5-methyl-3-pyridinyl)-4H-1,2,4-triazol-3-yl)-1-methoxy-1-(5-methyl-2-pyrimidinyl)-2-propanesulfonamide 2,2,2-trifluoroacetate] is 2.6 nM. Next, `COc1cccc(-c2nnc(NS(=O)(=O)CCc3ncc(F)cn3)n2-c2c(OC)cccc2OC)n1` [Example 676.0, N-(4-(2,6-dimethoxyphenyl)-5-(6-methoxy-2-pyridinyl)-4H-1,2,4-triazol-3-yl)-2-(5-fluoro-2-pyrimidinyl)ethanesulfonamide 2,2,2-trifluoroacetate]: 6 nM; `CO[C@H](c1ncc(C)cn1)[C@H](C)S(=O)(=O)Nc1nnc(-c2cncc(C)c2)n1-c1c(F)cccc1F` [Example 677.0, (1R,2S)-N-(4-(2,6-difluorophenyl)-5-(5-methylpyridin-3-yl)-4H-1,2,4-triazol-3-yl)-1-methoxy-1-(5-methylpyrimidin-2-yl)propane-2-sulfonamide 2,2,2-trifluoroacetate]: 7.2 nM; `COc1cnc([C@@H](C)[C@H](C)S(=O)(=O)Nc2nnc(-c3cncc(C)c3)n2-c2c(OC)cccc2OC)nc1` [Example 682.0, (2S,3R)-N-(4-(2,6-dimethoxyphenyl)-5-(5-methyl-3-pyridinyl)-4H-1,2,4-triazol-3-yl)-3-(5-methoxy-2-pyrimidinyl)-2-butanesulfonamide 2,2,2-trifluoroacetate]: 0.2 nM. Next, `COc1cccc(-c2nnc(NS(=O)(=O)[C@@H](C)[C@H](OC)c3ncc(C)cn3)n2-c2c(F)cccc2F)n1` [Example 684.0, (1R,2S)-N-(4-(2,6-difluorophenyl)-5-(6-methoxy-2-pyridinyl)-4H-1,2,4-triazol-3-yl)-1-methoxy-1-(5-methyl-2-pyrimidinyl)-2-propanesulfonamide]: 0.81 nM.

In the case of `COc1cnc([C@@H](OC)[C@@H](C)S(=O)(=O)Nc2nnc(-c3cncc(C)c3)n2-c2c(OC)cccc2OC)nc1` [Example 687.0, (1R,2R)-N-(4-(2,6-dimethoxyphenyl)-5-(5-methyl-3-pyridinyl)-4H-1,2,4-triazol-3-yl)-1-methoxy-1-(5-methoxy-2-pyrimidinyl)-2-propanesulfonamide 2,2,2-trifluoroacetate], the EC50 stood at 4.7 nM. With `COc1ncnc(OC)c1-n1c(NS(=O)(=O)[C@@H](C)[C@H](C)c2ncc(Cl)cn2)nnc1-c1cccnc1` [Example 709.0, (2S,3R)-3-(5-chloro-2-pyrimidinyl)-N-(4-(4,6-dimethoxy-5-pyrimidinyl)-5-(3-pyridinyl)-4H-1,2,4-triazol-3-yl)-2-butanesulfonamide], the EC50 amounted to 0.71 nM. The figure for `COc1cccc(-c2nnc(NS(=O)(=O)[C@@H](C)[C@H](C)c3ncc(Cl)cn3)n2-c2c(OC)ncnc2OC)n1` [Example 710.0, (2S,3R)-3-(5-chloro-2-pyrimidinyl)-N-(4-(4,6-dimethoxy-5-pyrimidinyl)-5-(6-methoxy-2-pyridinyl)-4H-1,2,4-triazol-3-yl)-2-butanesulfonamide] is 0.21 nM; for `COc1cccc(OC)c1-n1c(NS(=O)(=O)[C@@H](C)[C@@H](OC(C)C)c2ncc(C)cn2)nnc1-c1cccc(C)n1` [Example 738.0, (1S,2S)-N-(4-(2,6-dimethoxyphenyl)-5-(6-methylpyridin-2-yl)-4H-1,2,4-triazol-3-yl)-1-isopropoxy-1-(5-methylpyrimidin-2-yl)propane-2-sulfonamide] it is 0.1 nM; for `COc1cccc(OC)c1-n1c(NS(=O)(=O)[C@@H](C)[C@H](OC)c2ncc(C3=CCOCC3)cn2)nnc1-c1cncc(C)c1` [Example 749.0, (1R,2S)-1-(5-(3,6-dihydro-2H-pyran-4-yl)pyrimidin-2-yl)-N-(4-(2,6-dimethoxyphenyl)-5-(5-methylpyridin-3-yl)-4H-1,2,4-triazol-3-yl)-1-methoxypropane-2-sulfonamide] it is 15 nM.

A word on the EC50: it is the concentration needed to bring the measured effect to its halfway point.
